Experiments:
[1] = system: Puccinia recondita f. Sp. Tritici; experiment: Fungicidal activity against Puccinia recondita f. sp. tritici / wheat / leaf disc preventative (brown rust); assay type: in vivo; settings: foliar, 200 ppm in the applied formulation, wheat leaf segments cv. Kanzler, preventative (inoculated 1 day after application), compared to untreated, read-out: disease control
Description: Leaf disks or leaf segments of various plant species are cut from plants grown in a greenhouse. The cut leaf disks or segments are placed in multiwell plates (24-well format) onto water agar. The leaf disks are sprayed with a test solution before (preventative) or after (curative) inoculation. Compounds to be tested are prepared as DMSO solutions (max. 10 mg/mL) which are diluted to the appropriate concentration with 0.025% Tween20 just before spraying. The inoculated leaf disks or segments are incubated under defined conditions (temperature, relative humidity, light, etc.) according to the respective test system. A single evaluation of disease level is carried out 3 to 14 days after inoculation, depending on the pathosystem. Percent disease control relative to the untreated check leaf disks or segments is then calculated. Wheat leaf segments cv. Kanzler were placed on agar in multiwell plates (24-well format) and sprayed with the formulated test compound diluted in water. The leaf disks were inoculated with a spore suspension of the fungus 1 day after application. The inoculated leaf segments were incubated at 19° C. and 75% relative humidity (rh) under a light regime of 12 hours light/12 hours darkness in a climate cabinet and the activity of a compound was assessed as percent disease control compared to untreated when an appropriate level of disease damage appears in untreated check leaf segments (7 to 9 days after application). The following compounds at 200 ppm in the applied formulation give at least 80% disease control in this test when compared to untreated control leaf disks under the same conditions, which show extensive disease development.

[2] = system: Glomerella lagenarium (Colletotrichum lagenarium); experiment: Fungicidal activity against Glomerella lagenarium (Colletotrichum lagenarium) liquid culture / cucumber / preventative (anthracnose); assay type: cell-based; settings: Colletotrichum orbiculare; 20 ppm in the applied formulation; liquid culture (PDB), inhibition of growth measured photometrically 3 to 4 days after application; compared to untreated; read-out: disease control
Description: Mycelia fragments or conidia suspensions of a fungus prepared either freshly from liquid cultures of the fungus or from cryogenic storage, are directly mixed into nutrient broth. DMSO solutions of the test compound (max. 10 mg/mL) are diluted with 0.025% Tween20 by a factor of 50 and 10 μL of this solution is pipetted into a microtiter plate (96-well format). The nutrient broth containing the fungal spores/mycelia fragments is then added to give an end concentration of the tested compound. The test plates are incubated in the dark at 24° C. and 96% relative humidity. The inhibition of fungal growth is determined photometrically after 2 to 7 days, depending on the pathosystem, and percent antifungal activity relative to the untreated check is calculated. Conidia of the fungus from cryogenic storage are directly mixed into nutrient broth (PDB—potato dextrose broth). After placing a (DMSO) solution of test compound into a microtiter plate (96-well format), the nutrient broth containing the fungal spores is added. The test plates are incubated at 24° C. and the inhibition of growth is measured photometrically 3 to 4 days after application. The following compounds at 20 ppm in the applied formulation give at least 80% disease control in this test when compared to untreated control under the same conditions, which show extensive disease development.

[3] = system: Puccinia recondita f. Sp. Tritici; experiment: Fungicidal activity against Puccinia recondita f. sp. tritici / wheat / leaf disc curative (brown rust); assay type: in vivo; settings: foliar, 24 h, 200 ppm in the applied formulation, wheat leaf segments cv. Kanzler, curative (applied 1 day after inoculation), compared to untreated, read-out: disease control
Description: Leaf disks or leaf segments of various plant species are cut from plants grown in a greenhouse. The cut leaf disks or segments are placed in multiwell plates (24-well format) onto water agar. The leaf disks are sprayed with a test solution before (preventative) or after (curative) inoculation. Compounds to be tested are prepared as DMSO solutions (max. 10 mg/mL) which are diluted to the appropriate concentration with 0.025% Tween20 just before spraying. The inoculated leaf disks or segments are incubated under defined conditions (temperature, relative humidity, light, etc.) according to the respective test system. A single evaluation of disease level is carried out 3 to 14 days after inoculation, depending on the pathosystem. Percent disease control relative to the untreated check leaf disks or segments is then calculated. Wheat leaf segments cv. Kanzler are placed on agar in multiwell plates (24-well format). The leaf segments are then inoculated with a spore suspension of the fungus. Plates were stored in darkness at 19C and 75% relative humidity. The formulated test compound diluted in water was applied 1 day after inoculation. The leaf segments were incubated at 19° C. and 75% relative humidity under a light regime of 12 hours light/12 hours darkness in a climate cabinet and the activity of a compound was assessed as percent disease control compared to untreated when an appropriate level of disease damage appears in untreated check leaf segments (6 to 8 days after application). The following compounds at 200 ppm in the applied formulation give at least 80% disease control in this test when compared to untreated control leaf disks under the same conditions, which show extensive disease development.

Compound	pest or weed control at 200 ppm [1] [%]	inhibition of growth at 20 ppm [2] [%]	pest or weed control at 200 ppm [3] [%]
CC1(C)CC(=O)N(Cc2ccc(-c3noc(C(F)(F)F)n3)s2)O1 [Compound 1.3, 5,5-dimethyl-2-[[5-[5-(trifluoromethyl)-1,2,4-oxadiazol-3-yl]-2-thienyl]methyl] isoxazolidin-3-one]	≥ 80	≥ 80	–
Cc1cnn(Cc2ccc(-c3noc(C(F)(F)F)n3)s2)c1 [Compound 1.5, 3-[5-[(4-methylpyrazol-1-yl)methyl]-2-thienyl]-5-(trifluoromethyl)-1,2,4-oxadiazole]	≥ 80	≥ 80	–
FC(F)(F)c1nc(-c2ccc(Cn3cccn3)s2)no1 [Compound 1.7, 3-[5-(pyrazol-1-ylmethyl)-2-thienyl]-5-(trifluoromethyl)-1,2,4-oxadiazole]	≥ 80	≥ 80	–
FC(F)(F)c1nc(-c2ccc(Cn3nnnc3-c3ccccc3Br)s2)no1 [Compound 1.10, 3-[5-[[5-(2-bromophenyl)tetrazol-1-yl]methyl]-2-thienyl]-5-(trifluoromethyl)-1,2,4-oxadiazole]	≥ 80	≥ 80	–
Fc1cnn(Cc2ccc(-c3noc(C(F)(F)F)n3)s2)c1 [Compound 1.12, 3-[5-[(4-fluoropyrazol-1-yl)methyl]-2-thienyl]-5-(trifluoromethyl)-1,2,4-oxadiazole]	≥ 80	≥ 80	–
FC(F)(F)c1nc(-c2ccc(CN3CCCC3)s2)no1 [Compound 1.15, 3-[5-(pyrrolidin-1-ylmethyl)-2-thienyl]-5-(trifluoromethyl)-1,2,4-oxadiazole]	–	≥ 80	–
FC(F)(F)c1nc(-c2ccc(CN3CCOCC3)s2)no1 [Compound 1.18, 4-[[5-[5-(trifluoromethyl)-1,2,4-oxadiazol-3-yl]-2-thienyl]methyl]morpholine]	≥ 80	≥ 80	–
FC(F)(F)c1nc(-c2ccc(CN3CCC3)s2)no1 [Compound 1.20, 3-[5-(azetidin-1-ylmethyl)-2-thienyl]-5-(trifluoromethyl)-1,2,4-oxadiazole]	–	≥ 80	–
Cc1cccc(=O)n1Cc1cc(-c2noc(C(F)(F)F)n2)cs1 [Compound 1.27, 6-methyl-1-[[4-[5-(trifluoromethyl)-1,2,4-oxadiazol-3-yl]-2-thienyl]methyl]pyridin-2-one]	–	≥ 80	–
CC1(C)CC(=O)N(Cc2cc(-c3noc(C(F)(F)F)n3)cs2)O1 [Compound 1.28, 5,5-dimethyl-2-[[4-[5-(trifluoromethyl)-1,2,4-oxadiazol-3-yl]-2-thienyl]methyl] isoxazolidin-3-one]	–	≥ 80	–
O=S1(=O)CCCN1Cc1cc(-c2noc(C(F)(F)F)n2)cs1 [Compound 1.29, 2-[[4-[5-(trifluoromethyl)-1,2,4-oxadiazol-3-yl]-2-thienyl]methyl]-1,2-thiazolidine 1,1-dioxide]	–	≥ 80	–
O=C1CCCCN1Cc1cc(-c2noc(C(F)(F)F)n2)cs1 [Compound 1.31, 1-[[4-[5-(trifluoromethyl)-1,2,4-oxadiazol-3-yl]-2-thienyl]methyl]piperidin-2-one]	–	≥ 80	–
CC(c1ccc(-c2noc(C(F)(F)F)n2)s1)n1cc(C(=O)NC2CCCCC2)cn1 (stereo not drawn) [Compound 1.71, N-cyclohexyl-1-[1-[5-[5-(trifluoromethyl)-1,2,4-oxadiazol-3-yl]-2-thienyl]ethyl]pyrazole-4-carboxamide]	≥ 80	≥ 80	–
CC(c1ccc(-c2noc(C(F)(F)F)n2)s1)n1cc(C(=O)NC2CCCC2)cn1 (stereo not drawn) [Compound 1.83, N-cyclopentyl-1-[1-[5-[5-(trifluoromethyl)-1,2,4-oxadiazol-3-yl]-2-thienyl]ethyl]pyrazole-4-carboxamide]	≥ 80	–	≥ 80
O=C(Nc1ccccc1)c1cnn(Cc2ccc(-c3noc(C(F)(F)F)n3)s2)c1 [Compound 1.115, N-phenyl-1-[[5-[5-(trifluoromethyl)-1,2,4-oxadiazol-3-yl]-2-thienyl]methyl]pyrazole-4-carboxamide]	≥ 80	≥ 80	–
O=C(NC1CCCCC1)c1ncn(Cc2ccc(-c3noc(C(F)(F)F)n3)s2)n1 [Compound 1.149, N-cyclohexyl-1-[[5-[5-(trifluoromethyl)-1,2,4-oxadiazol-3-yl]-2-thienyl]methyl]-1,2,4-triazole-3-carboxamide]	≥ 80	≥ 80	–
CCC(C)NC(=O)c1ccnn1Cc1ccc(-c2noc(C(F)(F)F)n2)s1 (stereo not drawn) [Compound 1.155, N-sec-butyl-2-[[5-[5-(trifluoromethyl)-1,2,4-oxadiazol-3-yl]-2-thienyl]methyl]pyrazole-3-carboxamide]	≥ 80	≥ 80	–
CC(C)(C)CNC(=O)c1ccnn1Cc1ccc(-c2noc(C(F)(F)F)n2)s1 [Compound 1.156, N-(2,2-dimethylpropyl)-2-[[5-[5-(trifluoromethyl)-1,2,4-oxadiazol-3-yl]-2-thienyl]methyl]pyrazole-3-carboxamide]	≥ 80	≥ 80	–
CC(C)NC(=O)c1ccnn1Cc1ccc(-c2noc(C(F)(F)F)n2)s1 [Compound 1.157, N-isopropyl-2-[[5-[5-(trifluoromethyl)-1,2,4-oxadiazol-3-yl]-2-thienyl]methyl]pyrazole-3-carboxamide]	≥ 80	≥ 80	–
O=C(NC1CCCCC1)c1ccnn1Cc1ccc(-c2noc(C(F)(F)F)n2)s1 [Compound 1.159, N-cyclohexyl-2-[[5-[5-(trifluoromethyl)-1,2,4-oxadiazol-3-yl]-2-thienyl]methyl]pyrazole-3-carboxamide]	≥ 80	≥ 80	–
O=C(Nc1ccccc1)c1ccnn1Cc1ccc(-c2noc(C(F)(F)F)n2)s1 [Compound 1.162, N-phenyl-2-[[5-[5-(trifluoromethyl)-1,2,4-oxadiazol-3-yl]-2-thienyl]methyl]pyrazole-3-carboxamide]	≥ 80	≥ 80	–
O=C(NCc1ccccc1)c1ccnn1Cc1ccc(-c2noc(C(F)(F)F)n2)s1 [Compound 1.163, N-benzyl-2-[[5-[5-(trifluoromethyl)-1,2,4-oxadiazol-3-yl]-2-thienyl]methyl]pyrazole-3-carboxamide]	≥ 80	≥ 80	–
O=C(NC1CCCC1)c1ccnn1Cc1ccc(-c2noc(C(F)(F)F)n2)s1 [Compound 1.165, N-cyclopentyl-2-[[5-[5-(trifluoromethyl)-1,2,4-oxadiazol-3-yl]-2-thienyl]methyl]pyrazole-3-carboxamide]	≥ 80	≥ 80	–
CC(C)(C)NC(=O)c1ccnn1Cc1ccc(-c2noc(C(F)(F)F)n2)s1 [Compound 1.167, N-tert-butyl-2-[[5-[5-(trifluoromethyl)-1,2,4-oxadiazol-3-yl]-2-thienyl]methyl]pyrazole-3-carboxamide]	≥ 80	≥ 80	–
